Laboratory results from PubChem BioAssay (NCI).
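Test compounds were applied to cells in 96-well plates for 48 hours at 5 doses. TGI: total growth inhibition.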

What was measured:
Assay in all cases: NCI tumour cell line growth inhibition, 48 h
A498 renal = test system: A498 renal
A549 NSCLC = test system: A549 NSCLC
CAKI-1 renal = test system: CAKI-1 renal
CCRF-CEM leukemia = test system: CCRF-CEM leukemia
COLO 205 colon = test system: COLO 205 colon
DLD-1 colon = test system: DLD-1 colon
DMS 114 small cell lung = test system: DMS 114 small cell lung
DMS 273 small cell lung = test system: DMS 273 small cell lung
EKVX NSCLC = test system: EKVX NSCLC
HCC-2998 colon = test system: HCC-2998 colon
HCT-116 colon = test system: HCT-116 colon
HCT-15 colon = test system: HCT-15 colon
HL-60(TB) leukemia = test system: HL-60(TB) leukemia
HOP-18 NSCLC = test system: HOP-18 NSCLC
HOP-62 NSCLC = test system: HOP-62 NSCLC
HOP-92 NSCLC = test system: HOP-92 NSCLC
HT29 colon = test system: HT29 colon
IGROV1 ovarian = test system: IGROV1 ovarian
K-562 leukemia = test system: K-562 leukemia
KM12 colon = test system: KM12 colon
KM20L2 colon = test system: KM20L2 colon
LOX IMVI melanoma = test system: LOX IMVI melanoma
M19-MEL melanoma = test system: M19-MEL melanoma
MALME-3M melanoma = test system: MALME-3M melanoma
MCF7 breast = test system: MCF7 breast
MOLT-4 leukemia = test system: MOLT-4 leukemia
NCI-H226 lung = test system: NCI-H226 lung
NCI-H23 lung = test system: NCI-H23 lung
NCI-H460 lung = test system: NCI-H460 lung
NCI-H522 lung = test system: NCI-H522 lung
NCI/ADR-RES ovarian = test system: NCI/ADR-RES ovarian
OVCAR-3 ovarian = test system: OVCAR-3 ovarian
OVCAR-4 ovarian = test system: OVCAR-4 ovarian
OVCAR-5 ovarian = test system: OVCAR-5 ovarian
OVCAR-8 ovarian = test system: OVCAR-8 ovarian
P388 leukemia = test system: P388 leukemia
P388/ADR leukemia = test system: P388/ADR leukemia
RPMI-8226 leukemia = test system: RPMI-8226 leukemia
RXF 393 renal = test system: RXF 393 renal
SF-268 CNS = test system: SF-268 CNS
SF-295 CNS = test system: SF-295 CNS
SF-539 CNS = test system: SF-539 CNS
SK-MEL-2 melanoma = test system: SK-MEL-2 melanoma
SK-MEL-28 melanoma = test system: SK-MEL-28 melanoma
SK-MEL-5 melanoma = test system: SK-MEL-5 melanoma
SK-OV-3 ovarian = test system: SK-OV-3 ovarian
SN12C renal = test system: SN12C renal
SN12K1 renal = test system: SN12K1 renal
SNB-19 CNS = test system: SNB-19 CNS
SNB-75 CNS = test system: SNB-75 CNS
SNB-78 CNS = test system: SNB-78 CNS
SW-620 colon = test system: SW-620 colon
U251 CNS = test system: U251 CNS
UACC-257 melanoma = test system: UACC-257 melanoma
UACC-62 melanoma = test system: UACC-62 melanoma
UO-31 renal = test system: UO-31 renal
XF 498 CNS = test system: XF 498 CNS

## CCC/C=C/C=C\C(=O)O[C@@H]1[C@@H](C)[C@]2(O)[C@@H]3C=C(C)C(=O)[C@H]3CC(COC(C)=O)=C[C@H]2[C@@H]2C(C)(C)[C@]12OC(C)=O
A498 renal
  TGI: 33.3 µM
A549 NSCLC
  TGI: 97.6 µM
CAKI-1 renal
  TGI: 72.2 µM
CCRF-CEM leukemia
  TGI: 36.2 µM
COLO 205 colon
  TGI: 22.5 µM
DLD-1 colon
  TGI: 57.2 µM
DMS 114 small cell lung
  TGI: 94.6 µM
DMS 273 small cell lung
  TGI: 82.4 µM
EKVX NSCLC
  TGI: 105 µM
HCC-2998 colon
  TGI: 58.3 µM
HCT-116 colon
  TGI: 57.5 µM
HCT-15 colon
  TGI: 77.1 µM
HL-60(TB) leukemia
  TGI: 30.5 µM
HOP-18 NSCLC
  TGI: 109 µM
HOP-62 NSCLC
  TGI: 33.8 µM
HOP-92 NSCLC
  TGI: 156 µM
HT29 colon
  TGI: 84.6 µM
IGROV1 ovarian
  TGI: 109 µM
K-562 leukemia
  TGI: 128 µM
KM12 colon
  TGI: 106 µM
KM20L2 colon
  TGI: 88.8 µM
LOX IMVI melanoma
  TGI: 57.7 µM
M19-MEL melanoma
  TGI: 76.5 µM
MALME-3M melanoma
  TGI: 86.6 µM
MCF7 breast
  TGI: 83.1 µM
MOLT-4 leukemia
  TGI: 85.2 µM
NCI-H226 lung
  TGI: > 97.6 µM
NCI-H23 lung
  TGI: 98.6 µM
NCI-H460 lung
  TGI: 63.7 µM
NCI-H522 lung
  TGI: > 89.6 µM
NCI/ADR-RES ovarian
  TGI: 114 µM
OVCAR-3 ovarian
  TGI: 91.2 µM
OVCAR-4 ovarian
  TGI: 51.4 µM
OVCAR-5 ovarian
  TGI: 119 µM
OVCAR-8 ovarian
  TGI: 116 µM
P388 leukemia
  TGI: 9.61 µM
P388/ADR leukemia
  TGI: 300 µM
RPMI-8226 leukemia
  TGI: 95.8 µM
RXF 393 renal
  TGI: 113 µM
SF-268 CNS
  TGI: 87.7 µM
SF-295 CNS
  TGI: 39.5 µM
SF-539 CNS
  TGI: 83.5 µM
SK-MEL-2 melanoma
  TGI: 104 µM
SK-MEL-28 melanoma
  TGI: 86.7 µM
SK-MEL-5 melanoma
  TGI: 108 µM
SK-OV-3 ovarian
  TGI: 143 µM
SN12C renal
  TGI: 100 µM
SN12K1 renal
  TGI: 48.8 µM
SNB-19 CNS
  TGI: 114 µM
SNB-75 CNS
  TGI: 121 µM
SNB-78 CNS
  TGI: 152 µM
SW-620 colon
  TGI: 70 µM
U251 CNS
  TGI: 69.1 µM
UACC-257 melanoma
  TGI: 91.5 µM
UACC-62 melanoma
  TGI: 82.5 µM
UO-31 renal
  TGI: 92.3 µM
XF 498 CNS
  TGI: 16.7 µM
